Measured values: article PMC9866191, “Novel 9-Benzylaminoacridine Derivatives as Dual Inhibitors of Phosphodiesterase 5 and Topoisomerase II for the Treatment of Colon Cancer” (Molecules, 2023)

What was measured:
UACC-257 = test: NCI-60 one-dose screen; type: cell-based; details: Homo sapiens; UACC-257, Melanoma panel; single dose 10^−5 M; read-out: Growth inhibition %
HS 578T = test: NCI-60 one-dose screen; type: cell-based; details: Homo sapiens, Breast Cancer panel, single dose 10^−5 M, read-out: Growth inhibition %
RXF 393 = test: NCI-60 one-dose screen; type: cell-based; details: Homo sapiens; RXF 393, Renal Cancer panel; single dose 10^−5 M; read-out: Growth inhibition %
K-562 = test: NCI-60 one-dose screen; type: cell-based; details: Homo sapiens, K562; K-562, Leukemia panel; single dose 10^−5 M; read-out: Growth inhibition %
SF-539 = test: NCI-60 one-dose screen; type: cell-based; details: Homo sapiens; SF-539, CNS Cancer panel; single dose 10^−5 M; read-out: Growth inhibition %
UO-31 = test: NCI-60 one-dose screen; type: cell-based; details: Homo sapiens; UO-31, Renal Cancer panel; single dose 10^−5 M; read-out: Growth inhibition %
U251 = test: NCI-60 one-dose screen; type: cell-based; details: Homo sapiens, U-251; U251, CNS Cancer panel; single dose 10^−5 M; read-out: Growth inhibition %
SN12C = test: NCI-60 one-dose screen; type: cell-based; details: Homo sapiens, Renal Cancer panel, single dose 10^−5 M, read-out: Growth inhibition %
UACC-62 = test: NCI-60 one-dose screen; type: cell-based; details: Homo sapiens; UACC-62, Melanoma panel; single dose 10^−5 M; read-out: Growth inhibition %
MDA-MB-468 = test: NCI-60 one-dose screen; type: cell-based; details: Homo sapiens; MDA-MB-468, Breast Cancer panel; single dose 10^−5 M; read-out: Growth inhibition %
SW-620 = test: NCI-60 one-dose screen; type: cell-based; details: Homo sapiens; SW-620, Colon Cancer panel; single dose 10^−5 M; read-out: Growth inhibition %
NCI-H226 = test: NCI-60 one-dose screen; type: cell-based; details: Homo sapiens; NCI-H226, Non-small cell lung panel; single dose 10^−5 M; read-out: Growth inhibition %
KM12 = test: NCI-60 one-dose screen; type: cell-based; details: Homo sapiens; KM12, Colon Cancer panel; single dose 10^−5 M; read-out: Growth inhibition %
A549/ATCC = test: NCI-60 one-dose screen; type: cell-based; details: Homo sapiens, Non-small cell lung panel, single dose 10^−5 M, read-out: Growth inhibition %
HCC-2998 = test: NCI-60 one-dose screen; type: cell-based; details: Homo sapiens; HCC-2998, Colon Cancer panel; single dose 10^−5 M; read-out: Growth inhibition %
RPMI-8226 = test: NCI-60 one-dose screen; type: cell-based; details: Homo sapiens; RPMI-8226, Leukemia panel; single dose 10^−5 M; read-out: Growth inhibition %
MALME-3M = test: NCI-60 one-dose screen; type: cell-based; details: Homo sapiens, Melanoma panel, single dose 10^−5 M, read-out: Growth inhibition %
OVCAR-8 = test: NCI-60 one-dose screen; type: cell-based; details: Homo sapiens; OVCAR-8, Ovarian Cancer panel; single dose 10^−5 M; read-out: Growth inhibition %
COLO 205 = test: NCI-60 one-dose screen; type: cell-based; details: Homo sapiens; COLO 205, Colon Cancer panel; single dose 10^−5 M; read-out: Growth inhibition %
TK-10 = test: NCI-60 one-dose screen; type: cell-based; details: Homo sapiens; TK-10, Renal Cancer panel; single dose 10^−5 M; read-out: Growth inhibition %
HOP-62 = test: NCI-60 one-dose screen; type: cell-based; details: Homo sapiens; HOP-62, Non-small cell lung panel; single dose 10^−5 M; read-out: Growth inhibition %
OVCAR-3 = test: NCI-60 one-dose screen; type: cell-based; details: Homo sapiens; OVCAR-3, Ovarian Cancer panel; single dose 10^−5 M; read-out: Growth inhibition %
NCI-H322M = test: NCI-60 one-dose screen; type: cell-based; details: Homo sapiens, Non-small cell lung panel, single dose 10^−5 M, read-out: Growth inhibition %
SNB-19 = test: NCI-60 one-dose screen; type: cell-based; details: Homo sapiens; SNB-19, CNS Cancer panel; single dose 10^−5 M; read-out: Growth inhibition %
MDA-MB-231/ATCC = test: NCI-60 one-dose screen; type: cell-based; details: Homo sapiens, Breast Cancer panel, single dose 10^−5 M, read-out: Growth inhibition %
SK-MEL-2 = test: NCI-60 one-dose screen; type: cell-based; details: Homo sapiens; SK-MEL-2, Melanoma panel; single dose 10^−5 M; read-out: Growth inhibition %
HCT-116 = test: NCI-60 one-dose screen; type: cell-based; details: Homo sapiens, read-out: Growth inhibition %
CCD-966SK = test: MTT cell proliferation assay, CCD-966SK; details: CCD966SK skin fibroblast, 72 h MTT
LOX IMVI = test: NCI-60 one-dose screen; type: cell-based; details: Homo sapiens, Melanoma panel, single dose 10^−5 M, read-out: Growth inhibition %
PDE5A = target: T1, PDE5A (Homo sapiens, UniProt O76074); test: Phosphodiesterase 5 HTRF cGMP assay; type: biochemical; details: for IC50: means ± S.D. (n = 4), read-out: PDE5 IC50; for inhibition at 10 µM: read-out: PDE5 % Inhibition at 10 μM
T1 construct: purchased BPS Bioscience, San Diego, CA, USA
Protocol: All the synthesized acridine derivatives were tested for their in vitro ability to inhibit PDE5A at a screening dose of 10 µM.
The enzyme activities of phosphodiesterase 5 (PDE5) were measured using an HTRF cGMP assay kit (Cisbio, Codolet, France). […] Afterward, the HTRF reagent (cGMP-d2 and anti-cGMP-cryptate) was added for 1 h at 25 °C, and PDE activity was assayed on an HTRF reader (Tecan Infinite F200 Pro).

| Compound | inhibition at 10 µM (UACC-257) [%] | inhibition at 10 µM (HS 578T) [%] | inhibition at 10 µM (RXF 393) [%] | inhibition at 10 µM (K-562) [%] | inhibition at 10 µM (SF-539) [%] | inhibition at 10 µM (UO-31) [%] | inhibition at 10 µM (U251) [%] | inhibition at 10 µM (SN12C) [%] | inhibition at 10 µM (UACC-62) [%] | inhibition at 10 µM (MDA-MB-468) [%] | inhibition at 10 µM (SW-620) [%] | inhibition at 10 µM (NCI-H226) [%] | inhibition at 10 µM (KM12) [%] | inhibition at 10 µM (A549/ATCC) [%] | inhibition at 10 µM (HCC-2998) [%] | inhibition at 10 µM (RPMI-8226) [%] | inhibition at 10 µM (MALME-3M) [%] | inhibition at 10 µM (OVCAR-8) [%] | inhibition at 10 µM (COLO 205) [%] | inhibition at 10 µM (TK-10) [%] | further results |
| --- | --- | --- | --- | --- | --- | --- | --- | --- | --- | --- | --- | --- | --- | --- | --- | --- | --- | --- | --- | --- | --- |
| COc1ccc2nc3ccccc3c(NCc3ccccc3)c2c1 [Compound 25, Benzyl-(2-methoxyacridin-9-yl)-amine] | 72.9 | 74.8 | 94.1 | 94.2 | 88.2 | 86.2 | 77.1 | 77.5 | 54.1 | 110 | 80.5 | 65.6 | 63.5 | 81.8 | 136 | 131 | 77.5 | 71.8 | 119 | 61.3 | inhibition at 10 µM (HOP-62): 66.4%; inhibition at 10 µM (OVCAR-3): 59%; inhibition at 10 µM (NCI-H322M): 70.5%; inhibition at 10 µM (SNB-19): 75.8%; inhibition at 10 µM (MDA-MB-231/ATCC): 72.2%; inhibition at 10 µM (SK-MEL-2): 52.1%; inhibition at 10 µM (HCT-116): 85.2%; % Inhibition at 10 µM (CCD-966SK): 44.14 ± 3.80%; inhibition at 10 µM (LOX IMVI): 131%; IC50 (PDE5A): 3.61 ± 1 µM; inhibition at 10 µM (PDE5A): 77.2 ± 3.03% |
| COc1ccc2nc3ccccc3c(NCc3ccc(C)cc3)c2c1 [Compound 26, (2-Methoxyacridin-9-yl)-(4-methylbenzyl)-amine] | 108 | 57.3 | 93.8 | 97.3 | 89.3 | 86.7 | 84.7 | 76.4 | 44.3 | 119 | 81.5 | 57.9 | 62.7 | 80.7 | 158 | 146 | 78 | 71.3 | 141 | 53 | inhibition at 10 µM (HOP-62): 61%; inhibition at 10 µM (OVCAR-3): 53.1%; inhibition at 10 µM (NCI-H322M): 69.7%; inhibition at 10 µM (SNB-19): 70.8%; inhibition at 10 µM (MDA-MB-231/ATCC): 66.4%; inhibition at 10 µM (SK-MEL-2): 30%; inhibition at 10 µM (HCT-116): 91.4%; % Inhibition at 10 µM (CCD-966SK): 46.76 ± 3.21%; inhibition at 10 µM (LOX IMVI): 106%; IC50 (PDE5A): 0.83 ± 0.12 µM; inhibition at 10 µM (PDE5A): 88.1 ± 4.28% |
| COc1ccc(CNc2c3ccccc3nc3ccc(OC)cc23)cc1 [Compound 27, (2-Methoxyacridin-9-yl)-(4-methoxybenzyl)-amine] | 93.4 | 74.1 | 103 | 99.7 | 91.5 | 93.8 | 83.9 | 79.2 | 57.4 | 115 | 84.2 | 66.2 | 72.4 | 85.4 | 158 | 148 | 92.9 | 74.6 | 151 | 66.4 | inhibition at 10 µM (HOP-62): 65.9%; inhibition at 10 µM (OVCAR-3): 59.6%; inhibition at 10 µM (NCI-H322M): 76.5%; inhibition at 10 µM (SNB-19): 77.3%; inhibition at 10 µM (MDA-MB-231/ATCC): 76.4%; inhibition at 10 µM (SK-MEL-2): 59.1%; inhibition at 10 µM (HCT-116): 87.3%; % Inhibition at 10 µM (CCD-966SK): 19.04 ± 3.94%; inhibition at 10 µM (LOX IMVI): 175%; IC50 (PDE5A): 1.87 ± 1.03 µM; inhibition at 10 µM (PDE5A): 88.8 ± 4.84% |
| COc1ccc2nc3ccccc3c(NCc3ccc(F)cc3)c2c1 [Compound 28, (4-Fluorobenzyl)-(2-methoxyacridin-9-yl)-amine] | 111 | 73.9 | 119 | 98 | 96.2 | 108 | 77.9 | 83 | 60.9 | 124 | 85.3 | 70 | 71.3 | 80.3 | 178 | 143 | 105 | 80.5 | 154 | 62.2 | inhibition at 10 µM (HOP-62): 71.8%; inhibition at 10 µM (OVCAR-3): 68.8%; inhibition at 10 µM (NCI-H322M): 77.4%; inhibition at 10 µM (SNB-19): 82.3%; inhibition at 10 µM (MDA-MB-231/ATCC): 83.3%; inhibition at 10 µM (SK-MEL-2): 65%; inhibition at 10 µM (HCT-116): 91.1%; % Inhibition at 10 µM (CCD-966SK): 60.66 ± 2.63%; IC50 (CCD-966SK; read-out: IC50 μM): 4.67 ± 0.07 µM; inhibition at 10 µM (LOX IMVI): 167%; IC50 (PDE5A): 5.31 ± 1.27 µM; inhibition at 10 µM (PDE5A): 64.2 ± 7.47% |
| COc1ccc2nc3ccccc3c(NCc3ccc(Cl)cc3)c2c1 [Compound 29, (4-Chlorobenzyl)-(2-methoxyacridin-9-yl)-amine] | 152 | 64 | 124 | 130 | 106 | 98.1 | 97.5 | 77.9 | 35.2 | 131 | 87.2 | 51.2 | 59.9 | 76.4 | 188 | 145 | 182 | 70.3 | 162 | 47.1 | inhibition at 10 µM (HOP-62): 57.6%; inhibition at 10 µM (OVCAR-3): 49%; inhibition at 10 µM (NCI-H322M): 75.4%; inhibition at 10 µM (SNB-19): 73.6%; inhibition at 10 µM (MDA-MB-231/ATCC): 75.7%; inhibition at 10 µM (SK-MEL-2): 28.7%; inhibition at 10 µM (HCT-116): 93.2%; % Inhibition at 10 µM (CCD-966SK): 2.90 ± 2.51%; inhibition at 10 µM (LOX IMVI): 186%; IC50 (PDE5A): 5.35 ± 1.01 µM; inhibition at 10 µM (PDE5A): 66.1 ± 3.27% |
